According to US20260159512A1, “BCAT2 INHIBITORS” (AGIOS PHARMACEUTICALS, INC., priority 2021, published 2026):

Tests used:
BCAT2 [1] = molecular target: T1, BCAT2 (Homo sapiens, UniProt O15382); test: BCAT2 in vitro enzyme inhibition assay (resazurin/diaphorase-coupled fluorescence); type: biochemical; conditions: average where tested multiple times
T1 sequence (O15382 28-392): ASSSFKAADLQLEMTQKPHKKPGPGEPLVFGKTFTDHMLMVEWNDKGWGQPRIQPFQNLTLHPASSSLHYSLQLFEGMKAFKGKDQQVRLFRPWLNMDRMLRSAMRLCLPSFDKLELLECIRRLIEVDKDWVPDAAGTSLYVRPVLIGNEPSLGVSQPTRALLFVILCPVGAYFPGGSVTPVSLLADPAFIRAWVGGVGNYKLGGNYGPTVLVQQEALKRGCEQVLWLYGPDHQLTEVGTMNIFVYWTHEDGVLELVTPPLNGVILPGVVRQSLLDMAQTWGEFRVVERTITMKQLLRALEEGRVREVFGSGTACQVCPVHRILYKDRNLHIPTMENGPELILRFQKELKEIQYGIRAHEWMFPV
Outline: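 Coupled fluorescence readout: glutamate formed from L-leucine/α-ketoglutarate transamination drives GDH/NAD/diaphorase reduction of resazurin (Ex 540/Em 590). Human BCAT2 was first exposed 1 h at room temperature to compound, top final 100 μM in 3-fold, 10-point series; substrate reaction ran 1 h before SDS quench, in technical duplicate with DMSO max and enzyme-free min controls.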

BCAT2 [2] = molecular target: T1, BCAT2; test: BCAT2 in vitro cell inhibition using engineered A549 cells (KMV cell assay, 13C6-KMV by LC-MS/MS); type: cell-based; parameters: The result was an engineered A549 cell line that expressed endogenous BCAT2; endogenous in cells; host or cells: A549 cells with MUT and BCAT1 knocked out by CRISPR/CAS9; key to BCAT2 Cell Inhibition: A: less than or equal to 0.100 μM; B: greater than 0.100 and less than or equal to 0.500 μM; C: greater than 0.500 and less than or equal to 1.000 μM; d: greater than 1.000 μM; E: no fit; conditions: average where tested multiple times

Structure (SMILES)	IC50 (BCAT2 [1]) [nM]	IC50 (BCAT2 [2]) [nM]	BCAT2 Cell Inhibition (BCAT2 [2])
Cc1coc(-c2cc3c(cn2)nc(-c2ccccc2F)n3[C@H]2CCC[C@@H](NC(=O)c3ncc(Cl)s3)[C@@H]2O)n1 [Example 237, 5-chloro-N-((1R,2S,3S)-3-(2-(2-fluorophenyl)-6-(4-methyloxazol-2-yl)-1H-imidazo[4,5-c]pyridin-1-yl)-2-hydroxycyclohexyl)thiazole-2-carboxamide]	100 to 500	500 to 1000	
O=C(N[C@@H]1CCC[C@H](n2c(-c3ccccc3F)nc3cnc(-c4ccn[nH]4)cc32)[C@H]1O)c1ncc(Cl)s1 [Example 239, 5-chloro-N-((1R,2S,3S)-3-(2-(2-fluorophenyl)-6-(1H-pyrazol-5-yl)-1H-imidazo[4,5-c]pyridin-1-yl)-2-hydroxycyclohexyl)thiazole-2-carboxamide]	100 to 500	500 to 1000	
O=C(N[C@@H]1CCC[C@H](n2c(-c3ccccc3F)nc3cnc(-c4ccccn4)cc32)[C@H]1O)c1ncc(Cl)s1 [Example 241, 5-chloro-N-((1R,2S,3S)-3-(2-(2-fluorophenyl)-6-(pyridin-2-yl)-1H-imidazo[4,5-c]pyridin-1-yl)-2-hydroxycyclohexyl)thiazole-2-carboxamide]	100 to 500	100 to 500	
Cc1cnn(-c2cc3c(cn2)nc(CC(C)C)n3[C@H]2CCC[C@@H](NC(=O)c3ncc(Cl)s3)[C@@H]2O)n1 [Example 244, 5-chloro-N-((1R,2S,3S)-2-hydroxy-3-(2-isobutyl-6-(4-methyl-2H-1,2,3-triazol-2-yl)-1H-imidazo[4,5-c]pyridin-1-yl)cyclohexyl)thiazole-2-carboxamide]	> 1000		E
Cc1cnn(-c2cc3c(cn2)nc(-c2ccccc2F)n3[C@H]2CCC[C@@H](NC(=O)c3ncc(Cl)s3)[C@@H]2O)n1 [Example 247, 5-chloro-N-((1R,2S,3S)-3-(2-(2-fluorophenyl)-6-(4-methyl-2H-1,2,3-triazol-2-yl)-1H-imidazo[4,5-c]pyridin-1-yl)-2-hydroxycyclohexyl)thiazole-2-carboxamide]	500 to 1000	500 to 1000	
O=C(N[C@@H]1CCC[C@H](n2c(-c3ccccc3F)nc3cnc(-c4ncco4)cc32)[C@H]1O)c1ncc(Cl)s1 [Example 249, 5-chloro-N-((1R,2S,3S)-3-(2-(2-fluorophenyl)-6-(oxazol-2-yl)-1H-imidazo[4,5-c]pyridin-1-yl)-2-hydroxycyclohexyl)thiazole-2-carboxamide]	100 to 500	500 to 1000	
CC(C)Cc1nc2cnc(-c3nc[nH]n3)cc2n1[C@H]1CCC[C@@H](NC(=O)c2ncc(Cl)s2)[C@@H]1O [Example 251, 5-chloro-N-((1R,2S,3S)-2-hydroxy-3-(2-isobutyl-6-(1H-1,2,4-triazol-3-yl)-1H-imidazo[4,5-c]pyridin-1-yl)cyclohexyl)thiazole-2-carboxamide]	100 to 500	> 1000	
O=C(N[C@@H]1C[C@@H](O)C[C@H](n2c(-c3ccccc3F)nc3cnc(-c4ccccn4)cc32)C1)c1ncc(Cl)s1 [Example 253, 5-chloro-N-((1S,3R,5R)-3-(2-(2-fluorophenyl)-6-(pyridin-2-yl)-1H-imidazo[4,5-c]pyridin-1-yl)-5-hydroxycyclohexyl)thiazole-2-carboxamide]	100 to 500	100 to 500	
O=C(N[C@@H]1C[C@@H](O)C[C@H](n2c(-c3ccccc3F)nc3cnc(-c4nc[nH]n4)cc32)C1)c1ccc(Cl)s1 [Example 255, 5-chloro-N-((1S,3R,5R)-3-(2-(2-fluorophenyl)-6-(1H-1,2,4-triazol-3-yl)-1H-imidazo[4,5-c]pyridin-1-yl)-5-hydroxycyclohexyl)thiophene-2-carboxamide]	≤ 100	100 to 500	
CC(C)Cc1nc2cnc(-c3nc[nH]n3)cc2n1[C@H]1C[C@H](O)C[C@@H](NC(=O)c2ncc(Cl)s2)C1 [Example 257, 5-chloro-N-((1S,3R,5R)-3-hydroxy-5-(2-isobutyl-6-(1H-1,2,4-triazol-3-yl)-1H-imidazo[4,5-c]pyridin-1-yl)cyclohexyl)thiazole-2-carboxamide]	500 to 1000		E
O=C(N[C@@H]1C[C@@H](O)C[C@H](n2c(-c3ccccc3F)nc3cnc(-c4ncco4)cc32)C1)c1ncc(Cl)s1 [Example 261, 5-chloro-N-((1S,3R,5R)-3-(2-(2-fluorophenyl)-6-(oxazol-2-yl)-1H-imidazo[4,5-c]pyridin-1-yl)-5-hydroxycyclohexyl)thiazole-2-carboxamide]	100 to 500	> 1000	
CC(C)Cc1nc2cnc(-c3ccccn3)cc2n1[C@@H]1C[C@H](NC(=O)c2ncc(Cl)s2)CN(C)C1 [Example 263, 5-chloro-N-((3S,5R)-5-(2-isobutyl-6-(pyridin-2-yl)-1H-imidazo[4,5-c]pyridin-1-yl)-1-methylpiperidin-3-yl)thiazole-2-carboxamide]	> 1000		E
CN1C[C@@H](NC(=O)c2ccc(Cl)s2)C[C@@H](n2c(-c3ccccc3F)nc3cnc(-c4nc[nH]n4)cc32)C1 [Example 265, 5-chloro-N-((3S,5R)-5-(2-(2-fluorophenyl)-6-(1H-1,2,4-triazol-3-yl)-1H-imidazo[4,5-c]pyridin-1-yl)-1-methylpiperidin-3-yl)thiophene-2-carboxamide]	100 to 500	> 1000	
O=C(N[C@H]1CCC[C@@H](n2c(-c3ccccc3F)nc3cnc(O[C@@H]4CCOC4)cc32)C1)c1ncc(Cl)s1 [Example 266, 5-chloro-N-((1S,3R)-3-(2-(2-fluorophenyl)-6-(((R)-tetrahydrofuran-3-yl)oxy)-1H-imidazo[4,5-c]pyridin-1-yl)cyclohexyl)thiazole-2-carboxamide]	100 to 500		E

The remaining lines, values ahead:

IC50 (BCAT2 [1]) [nM]	IC50 (BCAT2 [2]) [nM]	BCAT2 Cell Inhibition (BCAT2 [2])	Structure (SMILES)
> 1000	> 1000		Nc1cc2c(cn1)nc(-c1ccccc1F)n2[C@H]1C[C@H](O)C[C@@H](NC(=O)c2ncc(Cl)s2)C1 [Example 269, N-((1S,3R,5R)-3-(6-amino-2-(2-fluorophenyl)-1H-imidazo[4,5-c]pyridin-1-yl)-5-hydroxycyclohexyl)-5-chlorothiazole-2-carboxamide]
> 1000		E	O=C(N[C@@H]1C[C@@H](O)C[C@H](n2c(-c3ccccc3F)nc3cnccc32)C1)c1ncc(Cl)s1 [Example 271, 5-chloro-N-((1S,3R,5R)-3-(2-(2-fluorophenyl)-1H-imidazo[4,5-c]pyridin-1-yl)-5-hydroxycyclohexyl)thiazole-2-carboxamide]
500 to 1000		E	CNc1cc2c(cn1)nc(-c1ccccc1F)n2[C@H]1C[C@H](O)C[C@@H](NC(=O)c2ncc(Cl)s2)C1 [Example 273, 5-chloro-N-((1S,3R,5R)-3-(2-(2-fluorophenyl)-6-(methylamino)-1H-imidazo[4,5-c]pyridin-1-yl)-5-hydroxycyclohexyl)thiazole-2-carboxamide]
> 1000		E	O=C(N[C@@H]1C[C@@H](O)C[C@H](n2c(-c3ccccc3F)nc3cnc(F)cc32)C1)c1ncc(Cl)s1 [Example 275, 5-chloro-N-((1S,3R,5R)-3-(6-fluoro-2-(2-fluorophenyl)-1H-imidazo[4,5-c]pyridin-1-yl)-5-hydroxycyclohexyl)thiazole-2-carboxamide]
> 1000		E	COc1cc2c(cn1)nc(-c1ccccc1F)n2[C@H]1C[C@H](O)C[C@@H](NC(=O)c2ncc(Cl)s2)C1 [Example 277, 5-chloro-N-((1S,3R,5R)-3-(2-(2-fluorophenyl)-6-methoxy-1H-imidazo[4,5-c]pyridin-1-yl)-5-hydroxycyclohexyl)thiazole-2-carboxamide]
> 1000		E	CNC(=O)c1cc2nc(CC(C)C)n([C@H]3CCC[C@@H](NC(=O)c4ncc(Cl)s4)[C@@H]3O)c2cn1 [Example 279, 5-chloro-N-((1R,2S,3S)-2-hydroxy-3-(2-isobutyl-6-(methylcarbamoyl)-3H-imidazo[4,5-c]pyridin-3-yl)cyclohexyl)thiazole-2-carboxamide]
500 to 1000		E	CNC(=O)c1ccc2c(c1)nc(-c1ccccn1)n2C1CC(O)CC(NC(=O)c2ncc(C(F)F)s2)C1 (centres unmarked) [Example 294, 5-(difluoromethyl)-N-(3-hydroxy-5-(5-(methylcarbamoyl)-2-(pyridin-2-yl)-1H-benzo[d]imidazol-1-yl)cyclohexyl)thiazole-2-carboxamide]
> 1000		E	CC(C)Cc1nc2cnc(N3CCC[C@@H]3C(C)(C)O)cc2n1[C@@H]1CCC[C@H](NC(=O)c2ncc(Cl)s2)C1 [Example 304, 5-chloro-N-((1S,3R)-3-(6-((R)-2-(2-hydroxypropan-2-yl)pyrrolidin-1-yl)-2-isobutyl-1H-imidazo[4,5-c]pyridin-1-yl)cyclohexyl)thiazole-2-carboxamide]
